In PubChem BioAssay AID1963825 (Molecular Pharmacology Branch, DTP, NCI, 2024):

Experiment: Anticancer human tumor 997537-175-T-J1-PDC patient-derived colon adenocarcinoma cell line growth inhibition [POLQ]
Conditions: 997537-175-T-J1-PDC complex spheroid viability, combination with POLQ inhibitors; for IC50: curve of first compound; for viability, T/C: stronger effect = lower value; active = viability on the fitted dose curve at most 10% of control; inactive = the rest
Procedure, shortened: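 PDC + HUVEC + MSC complex spheroids; POLQ inhibitors ± partner drugs; top conc. at/near clinical Cmax, else 10 microM (SN-38 1 microM), half-log dilutions; 37 degrees C, 5% CO2.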

[1] = second compound 0.0316 µM, first compound 0.0316 µM
[2] = second compound 0.0316 µM, first compound 0.1 µM
[3] = second compound 0.0316 µM, first compound 0.316 µM
[4] = second compound 0.0316 µM, first compound 1 µM
[5] = second compound 0.0316 µM, first compound 3.16 µM
[6] = second compound 0.0316 µM, first compound 10 µM
[7] = second compound 0.1 µM, first compound 0.0316 µM
[8] = second compound 0.1 µM, first compound 0.1 µM
[9] = second compound 0.1 µM, first compound 0.316 µM
[10] = second compound 0.1 µM, first compound 1 µM
[11] = second compound 0.1 µM, first compound 3.16 µM
[12] = second compound 0.1 µM, first compound 10 µM
[13] = second compound 0.316 µM, first compound 0.0316 µM
[14] = second compound 0.316 µM, first compound 0.1 µM
[15] = second compound 0.316 µM, first compound 0.316 µM
[16] = second compound 0.316 µM, first compound 1 µM
[17] = second compound 0.316 µM, first compound 3.16 µM
[18] = second compound 0.316 µM, first compound 10 µM
[19] = second compound 1 µM, first compound 0.0316 µM
[20] = second compound 1 µM, first compound 0.1 µM
[21] = second compound 1 µM, first compound 0.316 µM
[22] = second compound 1 µM, first compound 1 µM
[23] = second compound 1 µM, first compound 3.16 µM
[24] = second compound 1 µM, first compound 10 µM
[25] = second compound 3.16 µM, first compound 0.0316 µM
[26] = second compound 3.16 µM, first compound 0.1 µM
[27] = second compound 3.16 µM, first compound 0.316 µM
[28] = second compound 3.16 µM, first compound 1 µM
[29] = second compound 3.16 µM, first compound 3.16 µM
[30] = second compound 3.16 µM, first compound 10 µM
[31] = second compound 10 µM, first compound 0.0316 µM
[32] = second compound 10 µM, first compound 0.1 µM
[33] = second compound 10 µM, first compound 0.316 µM
[34] = second compound 10 µM, first compound 1 µM
[35] = second compound 10 µM, first compound 3.16 µM
[36] = second compound 10 µM, first compound 10 µM
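Also: luminescence signal used as a surrogate for viable cells; spheroids exposed to drugs for seven days before readout.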

CC(C)n1c(=O)n(C)c2cnc3cc(F)c(-c4ccc(OCCCN5CCCCC5)nc4)cc3c21 + Nc1ccc(C#CCN(C(=O)Cc2ncc(C(F)(F)F)cc2C(F)(F)F)c2ccc(F)cc2)nn1
inactive: viability, T/C [1] 96% | viability, T/C [2] 107% | viability, T/C [3] 92.5% | viability, T/C [4] 98% | viability, T/C [5] 85.5% | viability, T/C [6] 91.3% | viability, T/C [7] 98.2% | viability, T/C [8] 111% | viability, T/C [9] 113% | viability, T/C [10] 105% | viability, T/C [11] 97.2% | viability, T/C [12] 77.4% | viability, T/C [13] 97% | viability, T/C [14] 91.1% | viability, T/C [15] 107% | viability, T/C [16] 89.9% | viability, T/C [17] 107% | viability, T/C [18] 90.2% | viability, T/C [19] 105% | viability, T/C [20] 107% | viability, T/C [21] 92.6% | viability, T/C [22] 89.4% | viability, T/C [23] 105% | viability, T/C [24] 107% | viability, T/C [25] 97.3% | viability, T/C [26] 104% | viability, T/C [27] 104% | viability, T/C [28] 83.3% | viability, T/C [29] 97.8% | viability, T/C [30] 98.7% | viability, T/C [31] 102% | viability, T/C [32] 103% | viability, T/C [33] 97.8% | viability, T/C [34] 101% | viability, T/C [35] 96.2% | viability, T/C [36] 81.5%
> 10 µM: IC50 (second compound 0.0316 µM) | IC50 (second compound 0.1 µM) | IC50 (second compound 0.316 µM) | IC50 (second compound 1 µM) | IC50 (second compound 3.16 µM) | IC50 (second compound 10 µM)

CC1COCCN1c1cc(-c2ccnn2C)c2ccnc(-c3ccn[nH]3)c2n1 (stereo not given) + Nc1ccc(C#CCN(C(=O)Cc2ncc(C(F)(F)F)cc2C(F)(F)F)c2ccc(F)cc2)nn1
0.305 µM: IC50 (second compound 10 µM)
inactive: viability, T/C [1] 103% | viability, T/C [2] 83.6% | viability, T/C [3] 58.3% | viability, T/C [4] 49.4% | viability, T/C [5] 36.8% | viability, T/C [6] 71.6% | viability, T/C [7] 101% | viability, T/C [8] 92.2% | viability, T/C [9] 38.2% | viability, T/C [10] 49.5% | viability, T/C [11] 48.3% | viability, T/C [12] 69.6% | viability, T/C [13] 99.1% | viability, T/C [14] 90.6% | viability, T/C [15] 51.4% | viability, T/C [16] 42.5% | viability, T/C [17] 52% | viability, T/C [18] 65.8% | viability, T/C [19] 93.1% | viability, T/C [20] 76.1% | viability, T/C [21] 39.4% | viability, T/C [22] 75.2% | viability, T/C [23] 50% | viability, T/C [24] 53.4% | viability, T/C [25] 99.2% | viability, T/C [26] 84.3% | viability, T/C [27] 36% | viability, T/C [28] 28.6% | viability, T/C [29] 52.5% | viability, T/C [30] 82% | viability, T/C [31] 83.5% | viability, T/C [32] 75.3% | viability, T/C [33] 39.2% | viability, T/C [34] 32.5% | viability, T/C [35] 57.5% | viability, T/C [36] 67.5%
> 10 µM: IC50 (second compound 0.0316 µM) | IC50 (second compound 0.316 µM) | IC50 (second compound 1 µM)
3.16 µM: IC50 (second compound 0.1 µM) | IC50 (second compound 3.16 µM)

CCc1cc2c(N3CCc4c(cc(Cn5ccnc5)cc4-c4cn(C)nc4C(F)(F)F)C3=O)cc(C)nc2c(OC)n1 + Nc1ccc(C#CCN(C(=O)Cc2ncc(C(F)(F)F)cc2C(F)(F)F)c2ccc(F)cc2)nn1
> 10 µM: IC50 (second compound 0.0316 µM) | IC50 (second compound 0.1 µM) | IC50 (second compound 0.316 µM) | IC50 (second compound 1 µM) | IC50 (second compound 3.16 µM) | IC50 (second compound 10 µM)
inactive: viability, T/C [1] 96% | viability, T/C [2] 98.5% | viability, T/C [3] 98.1% | viability, T/C [4] 86.8% | viability, T/C [5] 76% | viability, T/C [6] 67.4% | viability, T/C [7] 88.7% | viability, T/C [8] 97% | viability, T/C [9] 77.7% | viability, T/C [10] 79.6% | viability, T/C [11] 68.3% | viability, T/C [12] 74.9% | viability, T/C [13] 93.4% | viability, T/C [14] 87.3% | viability, T/C [15] 99.5% | viability, T/C [16] 96.5% | viability, T/C [17] 84% | viability, T/C [18] 77.5% | viability, T/C [19] 96.4% | viability, T/C [20] 103% | viability, T/C [21] 84% | viability, T/C [22] 80.9% | viability, T/C [23] 78.9% | viability, T/C [24] 51% | viability, T/C [25] 102% | viability, T/C [26] 103% | viability, T/C [27] 99.7% | viability, T/C [28] 89.7% | viability, T/C [29] 65.4% | viability, T/C [30] 73.7% | viability, T/C [31] 105% | viability, T/C [32] 104% | viability, T/C [33] 87.6% | viability, T/C [34] 96.8% | viability, T/C [35] 71.8% | viability, T/C [36] 76.7%

COc1cc2cc(C(=O)CCC(=O)O)sc2cc1OC + Nc1ccc(C#CCN(C(=O)Cc2ncc(C(F)(F)F)cc2C(F)(F)F)c2ccc(F)cc2)nn1
> 10 µM: IC50 (second compound 0.0316 µM) | IC50 (second compound 0.1 µM) | IC50 (second compound 0.316 µM) | IC50 (second compound 1 µM) | IC50 (second compound 3.16 µM) | IC50 (second compound 10 µM)
inactive: viability, T/C [1] 107% | viability, T/C [2] 107% | viability, T/C [3] 109% | viability, T/C [4] 99.7% | viability, T/C [5] 96.8% | viability, T/C [6] 96.7% | viability, T/C [7] 91.2% | viability, T/C [8] 102% | viability, T/C [9] 98.2% | viability, T/C [10] 108% | viability, T/C [11] 101% | viability, T/C [12] 105% | viability, T/C [13] 99.1% | viability, T/C [14] 105% | viability, T/C [15] 109% | viability, T/C [16] 98% | viability, T/C [17] 91.8% | viability, T/C [18] 95.4% | viability, T/C [19] 94.4% | viability, T/C [20] 89.5% | viability, T/C [21] 82% | viability, T/C [22] 105% | viability, T/C [23] 96.5% | viability, T/C [24] 89.9% | viability, T/C [25] 105% | viability, T/C [26] 101% | viability, T/C [27] 97.5% | viability, T/C [28] 86.1% | viability, T/C [29] 100% | viability, T/C [30] 92.5% | viability, T/C [31] 101% | viability, T/C [32] 91.4% | viability, T/C [33] 106% | viability, T/C [34] 111% | viability, T/C [35] 101% | viability, T/C [36] 107%

COc1ccc([C@@H](O)c2cc(-c3ncnc4cc(N5CCOCC5)ccc34)c(F)cc2Cl)nn1 + Nc1ccc(C#CCN(C(=O)Cc2ncc(C(F)(F)F)cc2C(F)(F)F)c2ccc(F)cc2)nn1
> 10 µM: IC50 (second compound 0.0316 µM) | IC50 (second compound 0.1 µM) | IC50 (second compound 0.316 µM) | IC50 (second compound 1 µM) | IC50 (second compound 3.16 µM) | IC50 (second compound 10 µM)
inactive: viability, T/C [1] 95% | viability, T/C [2] 110% | viability, T/C [3] 100% | viability, T/C [4] 101% | viability, T/C [5] 85% | viability, T/C [6] 74.3% | viability, T/C [7] 98.8% | viability, T/C [8] 110% | viability, T/C [9] 99% | viability, T/C [10] 98.3% | viability, T/C [11] 71.5% | viability, T/C [12] 71% | viability, T/C [13] 110% | viability, T/C [14] 109% | viability, T/C [15] 91% | viability, T/C [16] 99.1% | viability, T/C [17] 96.1% | viability, T/C [18] 65.6% | viability, T/C [19] 96% | viability, T/C [20] 98.2% | viability, T/C [21] 94.7% | viability, T/C [22] 91.6% | viability, T/C [23] 79.3% | viability, T/C [24] 94.2% | viability, T/C [25] 107% | viability, T/C [26] 99.1% | viability, T/C [27] 96.7% | viability, T/C [28] 96.6% | viability, T/C [29] 87.6% | viability, T/C [30] 82.1% | viability, T/C [31] 99.5% | viability, T/C [32] 107% | viability, T/C [33] 95.7% | viability, T/C [34] 95.8% | viability, T/C [35] 85.3% | viability, T/C [36] 92.7%
